Experimental data: patent publication US6235777A, “Benzenesulfonamide compounds” (Ono Pharmaceutical Co., Ltd., priority 1997, dated 2001)

Legend:
mouse EP1 = target: T1, mouse EP1 (Mus musculus, UniProt P35375); test: Binding assay using expression cell of prostanoid receptor subtype (EP1; competition of specific 3H-PGE2 binding to CHO cell membrane fraction); details: Table 1, 3H-PGE2 2.5 nM, 1 hour, room temperature, pH6.0, read-out: dissociation constant to receptor subtype, Ki (EP1), present invention compounds
T1 construct: expressed in transfected cells; host or cells: CHO
T1 sequence (P35375 1-405): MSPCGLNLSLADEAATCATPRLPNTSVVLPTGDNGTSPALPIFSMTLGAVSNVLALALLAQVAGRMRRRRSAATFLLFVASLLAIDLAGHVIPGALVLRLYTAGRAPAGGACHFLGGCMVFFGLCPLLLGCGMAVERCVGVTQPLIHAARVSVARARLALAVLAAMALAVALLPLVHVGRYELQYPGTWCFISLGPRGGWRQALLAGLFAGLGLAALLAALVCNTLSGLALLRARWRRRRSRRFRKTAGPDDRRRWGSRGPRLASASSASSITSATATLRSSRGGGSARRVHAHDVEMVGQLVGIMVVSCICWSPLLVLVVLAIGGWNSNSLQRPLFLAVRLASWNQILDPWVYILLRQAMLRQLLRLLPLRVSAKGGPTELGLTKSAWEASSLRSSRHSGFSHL
Description: (§1) (i) Binding Assay Using Expression Cell of Prostanoid Receptor Subtype
(§2) The standard assay mixture contained membrane fraction (0.5 mg/ml), ^3 H-PGE2 in a final volume of 200 microliter was incubated for 1 hour at room temperature. The reaction was terminated by addition of 3 ml of ice-cold buffer. The mixture was rapidly filtered through a glass filter (GF/B). The radioactivity associated with the filter was measured by liquid scintillation counting.
(§3) Non-specific binding was calculated as the binding in the presence of an excess (2.5 microM) of unlabeled PGE2. […] The following buffer was used in all reaction. Buffer:potassium phosphate (pH6.0, 10 mM), EDTA (1 mM), MgCl2 (10 mM), NaCl (0.1M).
(§4) The dissociation constant Ki (microM) of each compound was calculated by the following equation.

mouse EP3 = target: T2, mouse EP3 (Mus musculus, UniProt P30557); test: Binding assay using expression cell of prostanoid receptor subtype (EP3; competition of specific 3H-PGE2 binding to CHO cell membrane fraction); details: Table 1, 3H-PGE2 2.5 nM, 1 hour, room temperature, pH6.0, read-out: dissociation constant to receptor subtype, Ki (EP3), present invention compounds
T2 construct: expressed in transfected cells; host or cells: CHO
T2 sequence (P30557 1-365): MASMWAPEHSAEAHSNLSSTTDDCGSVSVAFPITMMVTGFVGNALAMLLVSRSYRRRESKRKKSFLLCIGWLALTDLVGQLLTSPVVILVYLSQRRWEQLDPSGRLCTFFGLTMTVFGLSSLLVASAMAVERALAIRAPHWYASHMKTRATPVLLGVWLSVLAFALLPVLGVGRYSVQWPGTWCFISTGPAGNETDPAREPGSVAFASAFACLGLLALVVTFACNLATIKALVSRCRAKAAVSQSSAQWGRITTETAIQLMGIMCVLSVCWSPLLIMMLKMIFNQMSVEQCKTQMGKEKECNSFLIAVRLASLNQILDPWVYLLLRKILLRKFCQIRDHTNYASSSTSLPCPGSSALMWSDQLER
Description: as §1, §2, §3, §4

SMILES	Ki (mouse EP1) [nM]	Ki (mouse EP3) [nM]
Cc1cc(Cl)ccc1S(=O)(=O)NC[C@H]1C2CCC(CC2)[C@@H]1/C=C\CCCC(=O)O [Example 2(c), 6-[(2S, 3S)-3-(4-chloro-2-methylphenylsulfonylaminomethyl)bicyclo[2.2. 2]octan-2-yl]-5Z-hexenoic acid]	1.8	200
Cc1cc(Cl)ccc1S(=O)(=O)NC[C@H]1C2CCC(CC2)[C@H]1/C=C/CCCC(=O)O [Example 2(n), 6-[(2S, 3S)-3-(4-chloro-2-methylphenylsulfonylaminomethyl)bicyclo[2.2. 2]-octan-2-yl]-5E-hexenoic acid]	5.1	1900
O=C(O)CCC/C=C\[C@H]1CCCC[C@@H]1CNS(=O)(=O)c1c(Cl)cc(Cl)cc1Cl [Example 3(e), 6-[(1R, 2S)-2-(2,4,6-trichlorophenylsulfonylaminomethyl)cyclohexyl]-5Z-hexenoic acid]	8.4	110
Cc1cc(Cl)ccc1S(=O)(=O)NC[C@H]1CC=CC[C@@H]1/C=C\CCCC(=O)O [Example 4(b), 6-[(4R, 5S)-5-(4-chloro-2-methylphenylsulfonylaminomethyl)cyclohexen-4-yl]-5Z-hexenoic acid]	17	52
O=C(O)CCC/C=C\[C@H]1CC=CC[C@@H]1CNS(=O)(=O)c1ccc(Cl)cc1F [Example 4(c), 6-[(4R, 5S)-5-(4-chloro-2-fluorophenylsulfonylaminomethyl)cyclohexen-4-yl]-5Z-hexenoic acid]	39	180
Cc1cc(Br)ccc1S(=O)(=O)NC[C@H]1CC=CC[C@@H]1/C=C\CCCC(=O)O [Example 4(f), 6-[(4R, 5S)-5-(4-bromo-2-methylphenylsulfonylaminomethyl)cyclohexen-4-yl]-5Z-hexenoic acid]	5.7	12
O=C(O)CCC/C=C\[C@@H]1[C@@H]2CC[C@@H](C2)[C@@H]1CNS(=O)(=O)c1ccc(Cl)cc1Cl [Example 5(a), 6-[(1R, 2S, 3S, 4S)-3-(2,4-dichlorophenylsulfonylaminomethyl)bicyclo[2.2. 1]-heptan-2-yl]-5Z-hexenoic acid]	12	280
O=C(O)CCC/C=C\[C@@H]1[C@@H]2CC[C@@H](C2)[C@@H]1CNS(=O)(=O)c1ccc(Cl)cc1F [Example 5(d), 6-[(1R, 2S, 3S, 4S)-3-(4-chloro-2-fluorophenylsulfonylaminomethyl)bicyclo[2.2. 1]heptan-2-yl]-5Z-hexenoic acid]	23	1200
Cc1cc(Cl)ccc1S(=O)(=O)NC[C@H]1[C@H]2CC[C@H](C2)[C@H]1/C=C\CCCC(=O)O [Example 5(e), 6-[(1R, 2S, 3S, 4S)-3-(4-chloro-2-methylphenylsulfonylaminomethyl)bicyclo[2.2. 1]heptan-2-yl]-5Z-hexenoic acid]	7.2	200
Cc1cc(Cl)cc(C)c1S(=O)(=O)NC[C@@H]1[C@@H](/C=C\CCCC(=O)O)[C@H]2C=C[C@@H]1CC2 [Example 6(e), 6-[(1S, 4R, 5S, 6S)-6-(4-chloro-2,6-dimethylphenylsulfonylaminomethyl)bicyclo[2.2. 2]oct-2-en-5-yl]-5Z-hexenoic acid]	4.2	1100
O=C(O)CCC/C=C\[C@@H]1[C@@H](CNS(=O)(=O)c2c(Cl)cc(Cl)cc2Cl)[C@H]2C=C[C@@H]1CC2 [Example 7(f), 6-[(1R, 4S, 5S, 6S)-6-(2,4,6-trichlorophenylsulfonylaminomethyl)bicyclo[2.2. 2]oct-2-en-5-yl]-5Z-hexenoic acid]	7.2	1500

Results, then the compound that gave them:

Ki (mouse EP1) [nM]	Ki (mouse EP3) [nM]	SMILES
1.4	85	Cc1cc(Br)ccc1S(=O)(=O)NC[C@H]1C2CCC(CC2)[C@H]1/C=C\CCCC(=O)O [Example 2(d), 6-[(2S, 3S)-3-(4-bromo-2-methylphenylsulfonylaminomethyl)bicyclo[2.2. 2]octan-2-yl]-5Z-hexenoic acid]
3.4	950	O=C(O)CCC/C=C\[C@@H]1C2CCC(CC2)[C@@H]1CNS(=O)(=O)c1c(Cl)cc(Cl)cc1Cl [Example 2(g), 6-[(2S, 3S)-3-(2,4,6-trichlorophenylsulfonylaminomethyl)bicyclo[2.2. 2]octan-2-yl]-5Z-hexenoic acid]
2.4	1400	Cc1cc(Cl)cc(Cl)c1S(=O)(=O)NC[C@H]1C2CCC(CC2)[C@H]1/C=C\CCCC(=O)O [Example 2(k), 6-[(2S, 3S)-3-(2,4-dichloro-6-methylphenylsulfonylaminomethyl)bicyclo[2.2. 2]octan-2-yl]-5Z-hexenoic acid]
0.5	120	O=C(O)CCC/C=C\[C@@H]1C2CCC(CC2)[C@@H]1CNS(=O)(=O)c1ccc(Cl)cc1Cl [Example 2, 6-[(2S, 3S)-3-(2,4-dichlorophenylsulfonylaminomethyl)bicyclo[2.2. 2]octan-2-yl]-5Z-hexenoic acid]
3.1	18	O=C(O)CCC/C=C\[C@H]1CCCC[C@@H]1CNS(=O)(=O)c1ccc(Cl)cc1Cl [Example 3(a), 6-[(1R, 2S)-2-(2,4-dichlorophenylsulfonylaminomethyl)cyclohexyl]-5Z-hexenoic acid]
1.1	41	Cc1cc(Cl)ccc1S(=O)(=O)NC[C@H]1CCCC[C@@H]1/C=C\CCCC(=O)O [Example 3(f), 6-[(1R, 2S)-2-(4-chloro-2-methylphenylsulfonylaminomethyl)cyclohexyl]-5Z-hexenoic acid]
3.9	370	O=C(O)CCC/C=C\[C@@H]1[C@@H](CNS(=O)(=O)c2ccc(Cl)cc2Cl)[C@@H]2C=C[C@H]1CC2 [Example 6(a), 6-[(1S, 4R, 5S, 6S)-6-(2,4-dichlorophenylsulfonylaminomethyl)bicyclo[2.2. 2]-oct-2-en-5-yl]-5Z-hexenoic acid]
3.9	1400	O=C(O)CCC/C=C\[C@@H]1[C@@H](CNS(=O)(=O)c2ccc(Cl)cc2F)[C@H]2C=C[C@@H]1CC2 [Example 7(d), 6-[(1R, 4S, 5S, 6S)-6-(4-chloro-2-fluorophenylsulfonylaminomethyl)bicyclo[2.2. 2]oct-2-en-5-yl]-5Z-hexenoic acid]
